The IC50 is the concentration at which inhibition is half-maximal.

The experiment addresses T1, Human autotaxin enzyme (Homo sapiens, UniProt Q13822).
T1 construct: purchased R&D System
Kind of experiment: Evaluation of autotaxin inhibitor, Method C (18:0 Lyso PC substrate, choline assay, Resorufin fluorescence). The conditions noted are these: Method C (Test Example 3), read-out: Inhibitory activity (enzyme inhibitory activity, IC50). The experiment is classed as biochemical. The procedure:
Test Example 3 (Method C) Evaluation of Autotaxin Inhibitor
Solution B containing 100 mM Tris-HCl buffer (pH7.5), 150 mM NaCl, 5 mM MgCl2, and 0.05% Triton X-100 was prepared. Human autotaxin enzyme (purchased from R&D System) was diluted with Solution B, and 2.5 μl of which was added to a solution of test compound in DMSO. Furthermore, 2.5 μl of 200 μM 18:0 Lyso PC (purchased from Avanti Polar Lipids) in Solution B was added and allowed to react at room temperature for 2 hours. After completion of the reaction, 15 μl of the coline assay reagent (100 mM Tris-HCl buffer (pH7.5), 5 mM MgCl2, 77 μg/ml coline oxidase, 10 μg/ml peroxydase, 25 μM 10-acetyl-3,7-dihydroxyphenoxazine, and excess autotaxin inhibitor) was added and allowed to react at room temperature for 20 minutes. The fluorescent dye Resorufin, which was produced by the reaction, was detected. The fluorescence was detected using ViewLux (PerkinElmer, Inc.) with a excitation wavelength of 531 nm and a fluorescence wavelength of 598 nm.
The percent inhibition of the test compound was calculated by assuming the sample with no test compound as 0% inhibition and the sample with no enzyme as 100% inhibition, and the percent inhibitions at different concentrations of the test compound were plotted to obtain a concentration-dependent curve.
Regarding `CCCCCC1CN(Cc2ccc(CC(=O)O)cc2)C(=O)c2cc(-c3ccc(Cl)cc3)nn21` (centres unmarked) [Compound I-0124], the half-maximal inhibitory concentration (IC50) is less than 10 nM.

In the case of `CCCCCC1CN(Cc2cccc(CC(=O)OCC)c2)C(=O)c2cc(-c3ccc(Cl)cc3)nn21` (centres unmarked) [Compound I-0125], the half-maximal inhibitory concentration (IC50) was not below 1000 nM.

With `CCCCCC1CN(Cc2cc(C)cc(C(=O)OC)c2)C(=O)c2cc(-c3ccc(Cl)cc3)nn21` (centres unmarked) [Compound I-0126], the IC50 is not below 1000 nM.

In the case of `CCCCCC1CN(Cc2ccccc2C)C(=O)c2cc(-c3ccc(Cl)cc3)nn21` (centres unmarked) [Compound I-0127], the IC50 is not below 1000 nM.

For the compound `CCCCCC1CN(Cc2cccc(C)c2)C(=O)c2cc(-c3ccc(Cl)cc3)nn21` (centres unmarked) [Compound I-0128], the IC50 was not below 1000 nM.

`CCCCCC1CN(Cc2ccccc2C#N)C(=O)c2cc(-c3ccc(Cl)cc3)nn21` (centres unmarked) [Compound I-0129]: the half-inhibitory concentration (IC50) was not below 1000 nM.

Turning to `CCCCCC1CN(Cc2ccc(C)cc2)C(=O)c2cc(-c3ccc(Cl)cc3)nn21` (centres unmarked) [Compound I-0130], the half-maximal inhibitory concentration (IC50) was 100 to 1000 nM.

Regarding `CCCCCC1CN(Cc2cccc(C#N)c2)C(=O)c2cc(-c3ccc(Cl)cc3)nn21` (centres unmarked) [Compound I-0131], the IC50 lay within 100 to 1000 nM.

As to `CCCCCC1CN(Cc2ccc(C#N)cc2)C(=O)c2cc(-c3ccc(Cl)cc3)nn21` (centres unmarked) [Compound I-0132], the IC50 fell in the range of 10 to 100 nM.

Turning to `CCCCCC1CN(Cc2ccc(NC(C)=O)cc2)C(=O)c2cc(-c3ccc(Cl)cc3)nn21` (centres unmarked) [Compound I-0133], the IC50 is not below 1000 nM.

On to `CCCCCC1CN(Cc2ccc(OCCCN(C)C)cc2)C(=O)c2cc(-c3ccc(Cl)cc3)nn21` (centres unmarked) [Compound I-0134], for which the half-inhibitory concentration (IC50) is not below 1000 nM.

Turning to `CCCCCC1CN(Cc2cccc(OCCCN(C)C)c2)C(=O)c2cc(-c3ccc(Cl)cc3)nn21` (centres unmarked) [Compound I-0135], the half-maximal inhibitory concentration (IC50) lay within 100 to 1000 nM.

As to `CCCCCC1CN(Cc2cc(C(C)=O)ccc2OC)C(=O)c2cc(-c3ccc(Cl)cc3)nn21` (centres unmarked) [Compound I-0136], the IC50 is not below 1000 nM.

For `CCCCCC1CN(Cc2cccc(C(=O)N3CCC(O)CC3)c2)C(=O)c2cc(-c3ccc(Cl)cc3)nn21` (centres unmarked) [Compound I-0137], the IC50 was in the range of 10 to 100 nM.

For the compound `CCCCCC1CN(Cc2ccccc2OCCCN(C)C)C(=O)c2cc(-c3ccc(Cl)cc3)nn21` (centres unmarked) [Compound I-0138], the IC50 fell in the range of 100 to 1000 nM.

On to `CCCCCC1CN(Cc2ccccc2S(=O)(=O)N2CCOCC2)C(=O)c2cc(-c3ccc(Cl)cc3)nn21` (centres unmarked) [Compound I-0139], for which the half-inhibitory concentration (IC50) was not below 1000 nM.

For the compound `CCCCCC1CN(Cc2ccc(OC(C)=O)cc2)C(=O)c2cc(-c3ccc(Cl)cc3)nn21` (centres unmarked) [Compound I-0140], the IC50 is not below 1000 nM.

Consider `CCCCCC1CN(Cc2ccc(S(C)(=O)=O)cc2)C(=O)c2cc(-c3ccc(Cl)cc3)nn21` (centres unmarked) [Compound I-0141], for which the IC50 lay in the range of 100 to 1000 nM.

Consider `CCCCCC1CN(Cc2cccc(NC(C)=O)c2)C(=O)c2cc(-c3ccc(Cl)cc3)nn21` (centres unmarked) [Compound I-0142], for which the IC50 lay within 100 to 1000 nM.

For `CCCCCC1CN(Cc2ccc(CC(=O)OC)cc2)C(=O)c2cc(-c3ccc(Cl)cc3)nn21` (centres unmarked) [Compound I-0143], the IC50 was not below 1000 nM.

For the compound `CCCCCC1CN(Cc2ccccc2CS(=O)(=O)c2ccccc2)C(=O)c2cc(-c3ccc(Cl)cc3)nn21` (centres unmarked) [Compound I-0144], the IC50 is not below 1000 nM.

Regarding `CCCCCC1CN(Cc2ccc(CO)cc2)C(=O)c2cc(-c3ccc(Cl)cc3)nn21` (centres unmarked) [Compound I-0145], the concentration for half-maximal inhibition (IC50) was in the range of 100 to 1000 nM.

For `CCCCCC1CN(Cc2ccc(Oc3ccccc3)cc2)C(=O)c2cc(-c3ccc(Cl)cc3)nn21` (centres unmarked) [Compound I-0146], the 50% inhibitory concentration (IC50) is not below 1000 nM.

Take `CCCCCC1CN(Cc2ccc(C(N)=O)cc2)C(=O)c2cc(-c3ccc(Cl)cc3)nn21` (centres unmarked) [Compound I-0147]: the IC50 lay within 100 to 1000 nM.

Consider `CCCCCC1CN(Cc2cccc(C(=O)O)c2)C(=O)c2cc(-c3ccc(Cl)cc3)nn21` (centres unmarked) [Compound I-0148], for which the half-maximal inhibitory concentration (IC50) was less than 10 nM.

`O=C(O)c1cccc(CN2C(=O)c3cc(-c4ccc(Cl)cc4)nn3[C@H]3CCC[C@H]32)c1` [Compound I-0149]: the half-maximal inhibitory concentration (IC50) is 100 to 1000 nM.

`CCCCC1CN(Cc2cccc(C(=O)O)c2)C(=O)c2cc(-c3ccc(Cl)cc3)nn21` (centres unmarked) [Compound I-0150]: the 50% inhibitory concentration (IC50) is less than 10 nM.

As for `CCCCC1CN(CNC(C)=O)C(=O)c2cc(-c3ccc(Cl)cc3)nn21` (centres unmarked) [Compound I-0151], the IC50 lay in the range of 10 to 100 nM.

Consider `C[C@H]1CN(CC(=O)N2CCOCC2)C(=O)c2cc(-c3ccc(Cl)cc3)nn21` [Compound I-0152], for which the concentration for half-maximal inhibition (IC50) is not below 1000 nM.

Consider `CCCCNC(=O)CN1C[C@H](C)n2nc(-c3ccc(Cl)cc3)cc2C1=O` [Compound I-0153], for which the IC50 is not below 1000 nM.

Take `C[C@H]1CN(CC(=O)N2CCCC2)C(=O)c2cc(-c3ccc(Cl)cc3)nn21` [Compound I-0154]: the IC50 was not below 1000 nM.

Take `C[C@H]1CN(CC(=O)N(C)CC(=O)O)C(=O)c2cc(-c3ccc(Cl)cc3)nn21` [Compound I-0155]: the IC50 was not below 1000 nM.

As for `C[C@H]1CN(CC(=O)NCCC(=O)O)C(=O)c2cc(-c3ccc(Cl)cc3)nn21` [Compound I-0156], the IC50 was not below 1000 nM.

Turning to `C[C@H]1CN(CC(=O)NCCCC(=O)O)C(=O)c2cc(-c3ccc(Cl)cc3)nn21` [Compound I-0157], the half-inhibitory concentration (IC50) is not below 1000 nM.

Consider `C[C@H]1CN(CC(=O)C2CCCCN2C(=O)O)C(=O)c2cc(-c3ccc(Cl)cc3)nn21` (some centres unmarked) [Compound I-0158], for which the IC50 was in the range of 100 to 1000 nM.

With `C[C@H]1CN(CC(=O)N2CCCC(C(=O)O)C2)C(=O)c2cc(-c3ccc(Cl)cc3)nn21` (some centres unmarked) [Compound I-0159], the IC50 was not below 1000 nM.

Consider `C[C@H]1CN(CC(=O)NC(Cc2ccccc2)C(=O)O)C(=O)c2cc(-c3ccc(Cl)cc3)nn21` (some centres unmarked) [Compound I-0160], for which the IC50 lay in the range of 10 to 100 nM.

For `CCCC(NC(=O)CN1C[C@H](C)n2nc(-c3ccc(Cl)cc3)cc2C1=O)C(=O)O` (some centres unmarked) [Compound I-0161], the half-maximal inhibitory concentration (IC50) was in the range of 100 to 1000 nM.

With `C[C@H]1CN(CC(=O)NCC(=O)O)C(=O)c2cc(-c3ccc(Cl)cc3)nn21` [Compound I-0162], the half-inhibitory concentration (IC50) was not below 1000 nM.

`C[C@H]1CN(Cc2cccc(CC(=O)O)c2)C(=O)c2cc(-c3ccc(Cl)cc3)nn21` [Compound I-0163]: the half-inhibitory concentration (IC50) was in the range of 100 to 1000 nM.

Take `C[C@H]1CN(Cc2cccc(C#N)c2)C(=O)c2cc(-c3ccc(Cl)cc3)nn21` [Compound I-0164]: the half-inhibitory concentration (IC50) lay within 100 to 1000 nM.

As for `C[C@H]1CN(Cc2ccc(C#N)cc2)C(=O)c2cc(-c3ccc(Cl)cc3)nn21` [Compound I-0165], the half-maximal inhibitory concentration (IC50) was not below 1000 nM.

Consider `C[C@H]1CN(Cc2cccc(OCCCN(C)C)c2)C(=O)c2cc(-c3ccc(Cl)cc3)nn21` [Compound I-0166], for which the IC50 was not below 1000 nM.

As for `C[C@H]1CN(Cc2cccc(C(=O)N3CCC(O)CC3)c2)C(=O)c2cc(-c3ccc(Cl)cc3)nn21` [Compound I-0167], the IC50 was not below 1000 nM.

Regarding `C[C@H]1CN(Cc2ccccc2OCCCN(C)C)C(=O)c2cc(-c3ccc(Cl)cc3)nn21` [Compound I-0168], the IC50 was not below 1000 nM.

Regarding `C[C@H]1CN(Cc2ccc(C(N)=O)cc2)C(=O)c2cc(-c3ccc(Cl)cc3)nn21` [Compound I-0169], the IC50 was not below 1000 nM.

With `C[C@H]1CN(Cc2ccc(CC(=O)O)cc2)C(=O)c2cc(-c3ccc(Cl)cc3)nn21` [Compound I-0170], the concentration for half-maximal inhibition (IC50) lay within 10 to 100 nM.

As to `C[C@H]1CN(Cc2ccc(O)cc2)C(=O)c2cc(-c3ccc(Cl)cc3)nn21` [Compound I-0171], the IC50 was not below 1000 nM.

With `C[C@H]1CN(Cc2ccccc2)C(=O)c2cc(-c3ccc(Cl)cc3)nn21` [Compound I-0172], the IC50 was not below 1000 nM.

For the compound `O=C(O)c1cccc(CN2CC(COCc3ccccc3)n3nc(-c4ccc(Cl)cc4)cc3C2=O)c1` (centres unmarked) [Compound I-0173], the IC50 fell in the range of 100 to 1000 nM.

Regarding `O=C(O)c1cccc(CN2CC(CO)n3nc(-c4ccc(Cl)cc4)cc3C2=O)c1` (centres unmarked) [Compound I-0174], the 50% inhibitory concentration (IC50) is not below 1000 nM.

For `CCOCC1CN(Cc2cccc(C(=O)O)c2)C(=O)c2cc(-c3ccc(Cl)cc3)nn21` (centres unmarked) [Compound I-0175], the IC50 was in the range of 10 to 100 nM.

Regarding `CCCOCC1CN(Cc2cccc(C(=O)O)c2)C(=O)c2cc(-c3ccc(Cl)cc3)nn21` (centres unmarked) [Compound I-0176], the half-inhibitory concentration (IC50) is less than 10 nM.

As for `N#Cc1ccc(CN2CC(COCc3ccccc3)n3nc(-c4ccc(Cl)cc4)cc3C2=O)cc1` (centres unmarked) [Compound I-0177], the IC50 was not below 1000 nM.

With `CCOCC1CN(Cc2ccc(C#N)cc2)C(=O)c2cc(-c3ccc(Cl)cc3)nn21` (centres unmarked) [Compound I-0178], the IC50 was in the range of 100 to 1000 nM.

Turning to `CCCCCC1CN(c2ccc(C(=O)O)cc2)C(=O)c2cc(-c3ccc(Cl)cc3)nn21` (centres unmarked) [Compound I-0179], the IC50 lay within 100 to 1000 nM.

With `CCCCCC1CN(Cc2ccc(C#N)cc2)C(=O)c2cc(C(=O)N3CCC(C#N)CC3)nn21` (centres unmarked) [Compound I-0180], the IC50 was not below 1000 nM.

With `CCCC1CN(Cc2ccc(C#N)cc2)C(=O)c2cc(-c3ccc(Cl)cc3)nn21` (centres unmarked) [Compound I-0181], the concentration for half-maximal inhibition (IC50) was in the range of 100 to 1000 nM.

On to `CCCC1CN(Cc2ccc(C#N)cc2)C(=O)c2cc(-c3ccc(C(F)(F)F)cc3)nn21` (centres unmarked) [Compound I-0182], for which the IC50 was not below 1000 nM.

For `CCCCC1CN(Cc2ccc(C#N)cc2)C(=O)c2cc(-c3ccc(Cl)cc3)nn21` (centres unmarked) [Compound I-0183], the concentration for half-maximal inhibition (IC50) is 10 to 100 nM.

`CCCCCC1CN(Cc2cccc(C(=O)O)n2)C(=O)c2cc(-c3ccc(Cl)cc3)nn21` (centres unmarked) [Compound I-0184]: the IC50 was less than 10 nM.

Regarding `CCCCCC1CN(Cc2cncc(C(=O)O)c2)C(=O)c2cc(-c3ccc(Cl)cc3)nn21` (centres unmarked) [Compound I-0185], the IC50 fell in the range of 10 to 100 nM.
